In one experiment the target is T1, PTHrP receptors (Oryctolagus cuniculus, UniProt G1T397).
T1 construct: the chondrocytes cultured for 14 days were homogenized and incubated with ^125I labelled PTHrP for 5 h; endogenous in cells; host or cells: primary rabbit growth-plate chondrocytes, 14-day pellet culture, homogenized
T1 sequence (G1T397 29-589): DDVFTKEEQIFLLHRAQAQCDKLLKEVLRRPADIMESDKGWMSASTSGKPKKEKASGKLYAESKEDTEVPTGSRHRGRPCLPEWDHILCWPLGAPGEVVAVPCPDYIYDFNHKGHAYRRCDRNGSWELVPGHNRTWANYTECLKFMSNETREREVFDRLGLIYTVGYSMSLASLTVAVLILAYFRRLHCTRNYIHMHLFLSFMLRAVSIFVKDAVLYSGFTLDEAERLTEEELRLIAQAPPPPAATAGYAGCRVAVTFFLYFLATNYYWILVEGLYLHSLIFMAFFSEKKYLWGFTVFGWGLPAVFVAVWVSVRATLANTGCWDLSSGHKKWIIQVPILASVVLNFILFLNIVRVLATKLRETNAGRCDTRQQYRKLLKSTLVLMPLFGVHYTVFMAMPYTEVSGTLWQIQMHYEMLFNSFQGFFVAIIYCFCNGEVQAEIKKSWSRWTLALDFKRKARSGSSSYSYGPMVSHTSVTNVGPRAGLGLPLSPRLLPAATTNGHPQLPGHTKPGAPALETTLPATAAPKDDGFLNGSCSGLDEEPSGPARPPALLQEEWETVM
The experiment in a line: Binding of 125I labelled PTHrP to receptors in chondrocyte homogenate (DSS crosslinking, SDS gel electrophoresis, autoradiography). Set-up: species or system rabbit. The settings on record: addition of excess PTHrP; chondrocytes cultured 14 days, homogenized; FIG. 1. From the text:
(§1) In the following Examples, grown chondrocytes were separated from the subchondral bone to bone transition area of rabbits 4 weeks old from birth by the method of Shimomura et al. (Shimomura, Y. et al., Calcif. Tissue Res. 19, 179-187, 1975). The separated chondrocytes were cultivated by the method of Iwamoto et al. (Iwamoto, M. et al. Dev. Biol. 136 500-507, 1989) and the method of Kato et al. (Kato, Y. et al. Endocrinology, 127, 114-118, 1990). Stated specifically, the separated chondrocytes were suspended in an Eagle's minimum essential medium (MEM) to give a concentration of 8×10^4 cells/mL in the presence of 10% fetal bovine serum (FBS) and 50 μg/mL of ascorbic acid and then seeded in 1-mL portions into 15-mL plastic centrifugal tubes (Corning). After 5-min centrifugation (at 1,500 rpm), the cells were cultivated in a CO2 gas incubator having a temperature setting of 37° C. Starting on the 6th day of the cultivation, medium changes were made every other day. The presence of PTHrP receptors in the chondrocytes was verified by SDS gel electrophoresis. Stated specifically, the chondrocytes cultured for 14 days were homogenized and incubated with ^125I labelled PTHrP for 5 h. The PTHrP binding to the receptors was crosslinked with DSS, solubilized with a SDS buffer solution and electrophoresed through a SDS gel. […]

The test system of another experiment is grown chondrocytes. In words: Cartilage matrix proteoglycan synthesis (incorporation of labelled sulfuric acid) in cultured chondrocytes. Format: cell-based, rabbit. The conditions noted are these: FIG. 2. The procedure: As in Example 1, grown chondrocytes were separated from the subchondral bone to bone transition area of rabbits 4 weeks old from birth by the method of Shimomura et al. (Shimomura, Y. et al., Calcif. Tissue Res. 19, 179-187, 1975). The separated chondrocytes were suspended in an Eagle's minimum essential medium (MEM) containing 10% fetal bovine serum and 50 μg/mL of ascorbic acid and seeded in a 96-well culture plate at a concentration of 5,000 cells in each well. When the cells became confluent, PTHrP was added and, one day later, 1 μCi of […] was added per well, followed by 17-h cultivation. The amount of cartilage matrix produced in the supernatant of the culture solution was measured by the method of Kato et al. (Kato, Y. et al., Endocrinology 122, 1991-1997, 1988). Briefly, the quantity of […] incorporated into proteoglycans was measured.

Experiment [1] concerns chondrocytes. The experiment in a line: Growth of chondrocytes cultured in a centrifugal tube (DNA content). The conditions noted are these: 10^−7 M added on 8th day, up to 28 days; 10^−10 to 10^−7 M, 21st day; FIG. 3, 4. Format: cell-based, rabbit.
Text: as §1, with “day.” for “day. The presence of PTHrP receptors in the chondrocytes was verified by SDS gel electrophoresis. Stated specifically, the chondrocytes cultured for 14 days were homogenized and incubated with ^125I labelled PTHrP for 5 h. The PTHrP binding to the receptors was crosslinked with DSS, solubilized with a SDS buffer solution and electrophoresed through a SDS gel.”
As in Example 1, chondrocytes were cultured in a centrifugal tube. […] After the cultivation, the cells were solubilized at appropriate intervals and the time-dependent changes in DNA content were measured. In another experiment, PTHrP was added at varying concentrations from 10^−10 to 10^−7 M and the DNA content on the 21st day of the cultivation was measured.

For experiment [2], the system named is chondrocytes. In words: Alkaline phosphatase (ALP) activity of chondrocytes cultured in a centrifugal tube. Format: cell-based, rabbit. From the text: (§2) In the following Examples, grown chondrocytes were separated from the subchondral bone to bone transition area of rabbits 4 weeks old from birth by the method of Shimomura et al. (Shimomura, Y. et al., Calcif. Tissue Res. 19, 179-187, 1975). The separated chondrocytes were cultivated by the method of Iwamoto et al. (Iwamoto, M. et al. Dev. Biol. 136 500-507, 1989) and the method of Kato et al. (Kato, Y. et al. Endocrinology, 127, 114-118, 1990). Stated specifically, the separated chondrocytes were suspended in an Eagle's minimum essential medium (MEM) to give a concentration of 8×10^4 cells/mL in the presence of 10% fetal bovine serum (FBS) and 50 μg/mL of ascorbic acid and then seeded in 1-mL portions into 15-mL plastic centrifugal tubes (Corning). After 5-min centrifugation (at 1,500 rpm), the cells were cultivated in a CO2 gas incubator having a temperature setting of 37° C. Starting on the 6th day of the cultivation, medium changes were made every other day. The presence of PTHrP receptors in the chondrocytes was verified by SDS gel electrophoresis. Stated specifically, the chondrocytes cultured for 14 days were homogenized and incubated with ^125I labelled PTHrP for 5 h. The PTHrP binding to the receptors was crosslinked with DSS, solubilized with a SDS buffer solution and electrophoresed through a SDS gel. After the electrophoresis, autoradiography was performed in the usual manner. As a control, excess PTHrP, was added to prevent the binding of ^125I labelled PTHrP to the receptors and the unbound PTHrP was electrophoresed by the same procedure and subjected to autoradiography.
As in Example 1, chondrocytes were cultured in a centrifugal tube. On the 8th day of the cultivation, 10^−7 M of PTHrP was added and the cultivation was continued for a period of up to 28 days. On the 21st day of the cultivation, a PTHrP free group was set and compared with the PTHrP treated group. In another experiment, PTHrP was added in varying amounts from […] and the dose-response relationship with the alkaline phosphatase activity (ALP activity) was verified. For the measurement of ALP activity, chondrocyte clusters were homogenized in 0.2% Triton X-100, centrifuged at 12,000 xg for 15 min and the supernatant was assayed by the method of Bessey et al. (Bessey O. A. et al., J. Biol. Chem. 164, 321-329, 1946). To investigate the progress of calcification, 0.5 μCi of ^45Ca was added at suitable intervals and its incorporation into the chondrocytes after 24 h, as well as the Ca level on the 28th day of the cultivation were measured.

The subject of experiment [3] is chondrocytes. The experiment in a line: Calcification of chondrocytes (45Ca incorporation, Ca level) in centrifugal tube culture. Format: cell-based, rabbit.
Text: as §2
As in Example 1, chondrocytes were cultured in a centrifugal tube. On the 8th day of the cultivation, 10^−7 M of PTHrP was added and the cultivation was continued for a period of up to 28 days. […] To investigate the progress of calcification, 0.5 μCi of ^45Ca was added at suitable intervals and its incorporation into the chondrocytes after 24 h, as well as the Ca level on the 28th day of the cultivation were measured.

The test system of the next experiment is mRNA of type II collagen. The experiment in a line: Expression of mRNA of type II collagen in cultured chondrocytes (hybridization with 32P cDNA probe). Format: cell-based, rabbit. The settings on record: 10^−8 or 10^−7 M PTHrP, last 6 days of 30-day cultivation; FIG. 9. On the procedure: (§3) As in Example 1, grown chondrocytes were separated from the subchondral bone to bone transition area of rabbits 4 weeks old from birth by the method of Shimomura et al. (Shimomura, Y. et a., Calcif. Tissue Res. 19, 179-187, 1975). The separated chondrocytes were suspended in an Eagle's minimum essential medium (MEM) containing 10% fetal bovine serum and 50 μg/mL of ascorbic acid and seeded on a 3.5-cm Petri dish coated with type I collagen, each well containing 5,000 cells. Following 30-day cultivation, 10^−8 and 10^−7 M of PTHrP was brought into action for the last 6 days. RNA was prepared from the cultured cells by the CsTFA method (Smale and Sasse, Anal. Biochem. 203, 352-356. 1992), separated by electrophoresis and thereafter transferred onto a membrane. The membrane onto which the RNA had been transferred was hybridized with a ^32P labelled cDNA probe for type X and II collagens.

For the next experiment, the system named is mRNA of type X collagen. In words: Expression of mRNA of type X collagen in cultured chondrocytes (hybridization with 32P cDNA probe). The settings on record: 10^−8 and 10^−7 M PTHrP, last 6 days of 30-day cultivation; FIG. 9. Format: cell-based, rabbit. The procedure: as §3

The results in this text go back to US6787518B1, “Therapeutics of osteoarthritis and inflammatory joint disease” (priority 1995, dated 2004).

As for “PTHrP: human 1-34PTHrP purchased from the Peptide Institute, Inc.; partial peptide of PTHrP, 34 amino acids from the N terminus”, the “binding of 125I labelled PTHrP to the receptors” value with PTHrP receptors was “completely prevented”. Further, the “matrix synthesizing capability relative to control (incorporation of 35S-sulfuric acid into proteoglycans)” value in the experiment with grown chondrocytes (10^−6 M PTHrP) is on record as “about 3 times”. Further, the “incorporation of 35S-sulfuric acid into proteoglycans” value in the experiment on grown chondrocytes (10^−10 to 10^−6 M PTHrP, dose response) is recorded as “accelerated the incorporation of ^35S-sulfuric acid into proteoglycans in a dose-dependent manner”. Besides, in the experiment with chondrocytes [1], the “DNA content of the chondrocytes” value is “not influenced at all”. Besides, the “ALP activity of the chondrocytes” value with chondrocytes [2] (10^−7 M PTHrP added on 8th day, up to 28 days, PTHrP Treated Group, FIG. 5) is on record as “suppressed”. Besides, the ALP activity entry in the experiment with chondrocytes [2] (10^−8 M PTHrP, FIG. 6) is “suppressed almost completely”. In addition, the “ALP activity after PTHrP was eliminated from the culture solution” value with chondrocytes [2] (PTHrP removed on 21st day of cultivation, PTHrP Free Group, FIG. 5) is on record as “restored to the level of the control group”. In the experiment on chondrocytes [2] (dose response, 21st day, FIG. 6), the “concentration at which PTHrP started to suppress the ALP activity” value was “above 10^−9 M”. For the same substance, the “incorporation of 45Ca into the chondrocytes” value with chondrocytes [3] (10^−7 M PTHrP, PTHrP Treated Group, FIG. 7) was “suppressed”. Besides, the “effect on 45Ca incorporation when PTHrP was removed” value in the experiment with chondrocytes [3] (PTHrP Free Group, FIG. 7) is “soon disappeared”. Also, the calcification of chondrocytes entry in the experiment with chondrocytes [3] (concentrations higher than 10^−8 M PTHrP, FIG. 8) is listed as “completely suppressed”. Moreover, the “expression of the mRNA of type II collagen” value in the experiment with mRNA of type II collagen is recorded as “no effects”. For the same substance, in the experiment with mRNA of type X collagen, the “expression of the mRNA of type X collagen” value is listed as “significantly inhibited”.
